Reference: DBAASP
In brackets after ≈: the same amount, converted by molar mass. Each block holds one compound with its values, some of them ahead of it.

Key:
Experiment in all cases: ≥ marks a high value that may be exact or a test limit, other limits are often not marked, values filed in µg/mL are converted to µM
[1] = tested on: Pseudomonas aeruginosa ATCC 15692
Pseudomonas aeruginosa = tested on: Pseudomonas aeruginosa
[2] = tested on: Corynebacterium jeikeium ATCC BAA-949
[3] = tested on: Pseudomonas aeruginosa ATCC 27853
[4] = tested on: Pseudomonas aeruginosa PAO1
Candida albicans = tested on: Candida albicans
Pseudomonas aeruginosa 2 = tested on: Pseudomonas aeruginosa 2
Pseudomonas aeruginosa 1 = tested on: Pseudomonas aeruginosa 1
[5] = tested on: Escherichia coli O157:H7 CICC 21530
[6] = tested on: Lacticaseibacillus rhamnosus 1.9021
[7] = tested on: Salmonella enterica subsp. enterica serovar Choleraesuis CVCC 503
[8] = tested on: Lacticaseibacillus rhamnosus 1.0911
[9] = tested on: Salmonella enterica subsp. enterica serovar Typhimurium ATCC 14028
[10] = tested on: Lacticaseibacillus rhamnosus 8014
[11] = tested on: Streptococcus agalactiae BNCC 185941
[12] = tested on: Lacticaseibacillus rhamnosus 1.0936
[13] = tested on: Staphylococcus epidermidis ATCC 12228
[14] = tested on: Staphylococcus aureus ATCC 43300
[15] = tested on: Staphylococcus aureus ATCC 29213
Escherichia coli K88 = tested on: Escherichia coli K88
[16] = tested on: Salmonella enterica subsp. enterica serovar Pullorum C79-13
[17] = tested on: Salmonella enterica serovar typhimurium MS7953s
[18] = tested on: Staphylococcus epidermidis C621
Escherichia coli UB1005 = tested on: Escherichia coli UB1005
[19] = tested on: Aeromonas salmonicida 99-1
[20] = tested on: Staphylococcus aureus C623
[21] = tested on: Salmonella enterica subsp. enterica serovar Typhimurium ATCC 14028s
[22] = tested on: Pseudomonas aeruginosa K799
[23] = tested on: Escherichia coli CGSC 4908
[24] = tested on: Pseudomonas aeruginosa Z61
Escherichia coli DC2 = tested on: Escherichia coli DC2
Candida albicans C627 = tested on: Candida albicans C627
[25] = tested on: Aeromonas salmonicida 97-4
[26] = tested on: Pseudomonas aeruginosa H1001
Candida glabrata = tested on: Candida glabrata
Candida tropicalis = tested on: Candida tropicalis
Candida parapsilosis = tested on: Candida parapsilosis
[27] = tested on: Candida albicans ATCC 10231
Candida krusei = tested on: Candida krusei

- MIC [1]: 8 µM (≈ 15.1 µg/mL)
- MIC (Pseudomonas aeruginosa): 8 µM (≈ 15.1 µg/mL)
- MIC [2]: 4 µM (≈ 7.55 µg/mL)
- MIC [3]: 8 µM (≈ 15.1 µg/mL)
- MIC [4]: 8 µM (≈ 15.1 µg/mL)
- MIC (Candida albicans): 2.83 µM (≈ 5.34 µg/mL)
- MIC (Pseudomonas aeruginosa 2): 16 µM (≈ 30.2 µg/mL)
- MIC (Pseudomonas aeruginosa 1): 8 µM (≈ 15.1 µg/mL)
SMILES: CC[C@H](C)[C@H](NC(=O)CN)C(=O)N[C@@H](Cc1ccccc1)C(=O)N[C@@H](CO)C(=O)N[C@@H](CCCCN)C(=O)N[C@@H](CC(C)C)C(=O)N[C@@H](C)C(=O)NCC(=O)N[C@@H](CCCCN)C(=O)N[C@@H](CCCCN)C(=O)N[C@@H](CC(C)C)C(=O)N[C@@H](CCCCN)C(=O)N[C@@H](CC(N)=O)C(=O)N[C@@H](CC(C)C)C(=O)N[C@@H](CC(C)C)C(=O)N[C@H](C(=O)N[C@@H](CO)C(=O)NCC(N)=O)[C@@H](C)CC [GIFSKLAGKKLKNLLISG]

- MIC [5]: 8 µM (≈ 11.2 µg/mL)
- MIC [6]: ≥ 128 µM
- MIC [8]: ≥ 128 µM
- MIC [9]: 32 µM (≈ 44.7 µg/mL)
- MIC [10]: ≥ 128 µM
- MIC [11]: ≥ 128 µM
- MIC [12]: ≥ 128 µM
- MIC [13]: > 128 µM
- MIC [3]: 16 µM (≈ 22.3 µg/mL)
- MIC [4]: 32 µM (≈ 44.7 µg/mL)
- MIC [14]: > 128 µM
- MIC [15]: > 128 µM
- MIC (Escherichia coli K88): 4 µM (≈ 5.59 µg/mL)
- MIC [16]: 16 µM (≈ 22.3 µg/mL)
SMILES: CC(C)C[C@H](NC(=O)CNC(=O)[C@H](CC(C)C)NC(=O)[C@H](Cc1c[nH]c2ccccc12)NC(=O)[C@H](CC(C)C)NC(=O)CNC(=O)[C@H](CC(C)C)NC(=O)[C@H](CCCCN)NC(=O)[C@H](CCCCN)NC(=O)CN)C(=O)N[C@@H](CCCCN)C(=O)N[C@@H](CCCCN)C(=O)NCC(N)=O [GKKLGLWLGLKKG]
- MIC [7]: ≥ 32 µM

- MIC [5]: ≥ 64 µM
- MIC [6]: ≥ 128 µM
- MIC [8]: ≥ 128 µM
- MIC [9]: 32 µM (≈ 41 µg/mL)
- MIC [10]: ≥ 128 µM
- MIC [11]: ≥ 128 µM
- MIC [12]: ≥ 128 µM
- MIC [13]: > 128 µM
- MIC [3]: 32 µM (≈ 41 µg/mL)
- MIC [4]: 64 µM (≈ 82.1 µg/mL)
- MIC [14]: > 128 µM
- MIC [15]: > 128 µM
- MIC (Escherichia coli K88): 16 µM (≈ 20.5 µg/mL)
- MIC [16]: ≥ 32 µM
SMILES: CC(C)C[C@H](NC(=O)CNC(=O)[C@H](CCCCN)NC(=O)[C@H](CC(C)C)NC(=O)[C@H](CC(C)C)NC(=O)[C@H](CCCCN)NC(=O)[C@@H](N)CCCCN)C(=O)N[C@@H](CC(C)C)C(=O)N[C@@H](CCCCN)C(=O)NCC(=O)N[C@@H](Cc1c[nH]c2ccccc12)C(N)=O [KKLLKGLLKGW]
- MIC [7]: ≥ 64 µM

Further lines, the compound ahead of its results:

SMILES: CC(=O)[C@H](CC(C)C)NC(=O)[C@H](Cc1ccc(O)cc1)NC(=O)[C@H](Cc1cnc[nH]1)NC(=O)[C@H](CC(=O)O)NC(=O)[C@@H](NC(=O)[C@H](C)NC(=O)[C@H](CC(C)C)NC(=O)CNC(=O)CNC(=O)[C@@H](NC(=O)[C@@H](NC(=O)[C@H](CCCCN)NC(=O)CNC(=O)[C@@H](NC(=O)[C@H](CCCCN)NC(=O)[C@H](CCCCN)NC(=O)[C@H](C)NC(=O)[C@H](CCCNC(=N)N)NC(=O)[C@H](CC(N)=O)NC(=O)[C@H](Cc1ccccc1)NC(=O)[C@H](Cc1c[nH]c2ccccc12)NC(=O)[C@H](CCCCN)NC(=O)[C@H](CCCCN)NC(=O)[C@H](Cc1c[nH]c2ccccc12)NC(=O)CN)C(C)C)[C@@H](C)O)C(C)C)C(C)C [GWKKWFNRAKKVGKTVGGLAVDHYL]
- MIC [17]: 0.7 µM (≈ 2 µg/mL)
- MIC [18]: 2.8 µM (≈ 7.99 µg/mL)
- MIC (Escherichia coli UB1005): 2.8 µM (≈ 7.99 µg/mL)
- MIC [19]: 0.7 µM (≈ 2 µg/mL)
- MIC [20]: 5.6 µM (≈ 16 µg/mL)
- MIC [21]: 2.8 µM (≈ 7.99 µg/mL)
- MIC [22]: 1.4 µM (≈ 4 µg/mL)
- MIC [23]: 0.7 µM (≈ 2 µg/mL)
- MIC [24]: 0.35 µM (≈ 0.999 µg/mL)
- MIC (Escherichia coli DC2): 0.7 µM (≈ 2 µg/mL)
- MIC (Candida albicans C627): 1.4 µM (≈ 4 µg/mL)
- MIC [25]: 0.7 µM (≈ 2 µg/mL)

SMILES: CC[C@H](C)[C@H](NC(=O)[C@H](C)NC(=O)[C@H](CC(N)=O)NC(=O)[C@@H](N)CCSC)C(=O)N[C@@H](CCCCN)C(=O)N[C@@H](CC(C)C)C(=O)N[C@@H](CC(C)C)C(=O)N[C@@H](CS)C(=O)N[C@@H](CCCN=C(N)N)C(=O)N[C@H](C(=O)O)C(C)C [MNAIKLLCRV]
- MIC [26]: 21.5 µM (≈ 25 µg/mL)

SMILES: CC(C)C[C@H](NC(=O)[C@H](Cc1ccc(O)cc1)NC(=O)[C@H](C)NC(=O)[C@@H](NC(=O)[C@H](CC(C)C)NC(=O)[C@H](C)NC(=O)[C@H](C)NC(=O)[C@H](CCCCN)NC(=O)CNC(=O)[C@@H](NC(=O)[C@H](Cc1cnc[nH]1)NC(=O)[C@H](CCCCN)NC(=O)CNC(=O)[C@@H](NC(=O)[C@H](Cc1cnc[nH]1)NC(=O)[C@@H](NC(=O)[C@H](C)NC(=O)[C@H](CCCCN)NC(=O)[C@H](CCCCN)NC(=O)[C@H](Cc1ccccc1)NC(=O)[C@H](Cc1c[nH]c2ccccc12)NC(=O)[C@H](CCCCN)NC(=O)CNC(=O)[C@H](Cc1c[nH]c2ccccc12)NC(=O)[C@@H](N)CCCN=C(N)N)[C@@H](C)O)C(C)C)C(C)C)[C@@H](C)O)C(N)=O [RWGKWFKKATHVGKHVGKAALTAYL]
- MIC [17]: 0.701 µM (≈ 2 µg/mL)
- MIC [18]: 22.4 µM (≈ 64 µg/mL)
- MIC (Escherichia coli UB1005): 1.4 µM (≈ 4 µg/mL)
- MIC [19]: 1.4 µM (≈ 4 µg/mL)
- MIC [20]: 22.4 µM (≈ 64 µg/mL)
- MIC [21]: 2.8 µM (≈ 8 µg/mL)
- MIC [22]: 1.4 µM (≈ 4 µg/mL)
- MIC [23]: 1.4 µM (≈ 4 µg/mL)
- MIC [24]: 0.701 µM (≈ 2 µg/mL)
- MIC (Escherichia coli DC2): 1.4 µM (≈ 4 µg/mL)
- MIC (Candida albicans C627): 5.61 µM (≈ 16 µg/mL)
- MIC [25]: 0.701 µM (≈ 2 µg/mL)

SMILES: CC[C@H](C)[C@H](NC(=O)[C@@H](NC(=O)CNC(=O)[C@H](CCCN=C(N)N)NC(=O)[C@H](CCC(N)=O)NC(=O)[C@H](Cc1cnc[nH]1)NC(=O)[C@H](CC(C)C)NC(=O)[C@H](CCCN=C(N)N)NC(=O)[C@@H](NC(=O)[C@H](CC(C)C)NC(=O)[C@@H](NC(=O)[C@@H](NC(=O)[C@H](CC(C)C)NC(=O)[C@H](CC(C)C)NC(=O)[C@@H](N)C(C)C)C(C)C)[C@@H](C)O)[C@@H](C)O)C(C)C)C(=O)N[C@@H](Cc1ccc(O)cc1)C(=O)N[C@@H](CCCN=C(N)N)C(=O)N[C@@H](CCCCN)C(=O)N[C@@H](Cc1c[nH]c2ccccc12)C(=O)N[C@@H](CCCN=C(N)N)C(=O)N[C@@H](Cc1cnc[nH]1)C(=O)N[C@@H](Cc1ccccc1)C(=O)N[C@@H](CO)C(=O)NCC(=O)N[C@@H](CCCN=C(N)N)C(=O)N[C@@H](CCCCN)C(=O)N[C@@H](Cc1ccc(O)cc1)C(=O)N[C@@H](CCCN=C(N)N)C(=O)O [VLLVTLTRLHQRGVIYRKWRHFSGRKYR]
- MIC (Candida glabrata): ≥ 50 µM
- MIC (Candida tropicalis): 12.5 µM (≈ 44.3 µg/mL)
- MIC (Candida parapsilosis): 25 µM (≈ 88.5 µg/mL)
- MIC [27]: 25 µM (≈ 88.5 µg/mL)
- MIC (Candida albicans): 25 µM (≈ 88.5 µg/mL)
- MIC (Candida krusei): 25 µM (≈ 88.5 µg/mL)
